Converted amounts (≈) assume the structure as drawn. “Also recorded” adds a separate entry of the source.

Assay [1] has as its system MRSA-2. Kind of assay: Fluorescence microscopy assay (DAPI/PI). The format is cell-based, Staphylococcus aureus. To be noted: vancomycin 4 µg/mL; 2D 4 and 8 μg/mL; 2 h. How it is done: MRSA-2 was cultivated to the logarithmic growth phase, then washed with PBS and resuspended in PBS until the concentration of bacterial suspension reached 1 × 10^8 CFU/mL. […] Thereafter, the samples were incubated with DAPI (10 μM) and PI (10 μM) in the dark for 15 min. The bacterial cells were then subjected to observation under a fluorescence microscope. DMSO served as the negative controls.

The test system of the next assay is S. aureus ATCC 29213. In words: MIC and MBC testing, broth microdilution. The format is cell-based, Staphylococcus aureus. The settings on record: Staphylococcus aureus, ATCC29213, S. aureus ATCC 29213. The essentials: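 Log-phase cultures diluted in Mueller-Hinton broth to 1 × 10^6 CFU/mL were exposed to doubling dilutions of DMSO-dissolved compounds at 37 °C for 18 h, each concentration in triplicate. Lowest concentration lacking visible growth recorded as MIC; controls were levofloxacin and 0.1% DMSO.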

Assay [2] concerns MRSA-2. In words: MRSA-induced mouse skin abscess model. The format is in vivo. From the text: The MRSA-induced mouse skin abscess model was used to assess the in vivo antibacterial effects of 2D. Female KM mice, aged 4–6 weeks and weighing 20 ± 2 g, were purchased from the Laboratory Animal Center, Lanzhou Institute of Veterinary Medicine, Chinese Academy of Agricultural Sciences. The animal experiments were approved by the Ethics Committee of Research Involving Animals of the Lanzhou Institute of Husbandry and Pharmaceutical Science of CAAS (Approval number: 2025-03) and performed in accordance with the guidelines of the Ethics Committee for Animal Experiments. Prior to the formal experiment, all mice were acclimated for 5 days. The mice were kept in a pathogen-free environment with a 12 h light/12 h dark cycle, 50% ± 10% humidity, and a temperature of 24 °C ± 2 °C. […] The depilation method employed was as follows: depilatory paste was applied to the designated area for 10 min, after which it was thoroughly washed with 0.9% saline. The mice were semi-anesthetized by intraperitoneal injection with sodium Ulatan (TCI, 20%, 100 μL). […] After a 24 h interval, the administration was repeated, and 24 h after the last administration, the volume of abscess was measured and calculated. Then, the skin of the infected site and main organs were collected for tissue bacterial load and pathological detection.

In the case of `[H]/N=C(\N)NN=C1CCCc2cc(OCCCCCCC)ccc21` [Compound 2D, (E)-2-(6-(heptyloxy)-3,4-dihydronaphthalen-1(2H)-ylidene)hydrazine-1-carboximidamide], in the assay with MRSA-2 [1], the “PI red fluorescence (damaged membranes)” value is recorded as “a marked tendency to emit red fluorescence”. Besides, the minimal inhibitory concentration (MIC) in the assay on S. aureus ATCC 29213 (18 h, read-out: MIC) is 0.5 µg/mL (≈ 1.58 µM). In addition, the MBC in the assay on S. aureus ATCC 29213 (read-out: MBC) was 4 µg/mL (≈ 12.6 µM). For the same compound, in the assay on MRSA-2 [2] (5 mg/kg), the “purulent lesions at the infection site (skin histopathology)” value is reported as “significantly smaller”. In the assay on MRSA-2 [2] (5 mg/kg, injected 2 h and 24 h postinfection, compared to model and solvent group), the “volume of skin abscess” value is “reduced volume”. Also, the “purulent foci (skin histopathology)” value in the assay on MRSA-2 [2] (10 mg/kg) is reported as “almost no purulent foci”. In the assay on MRSA-2 [2] (10 mg/kg, injected 2 h and 24 h postinfection), the skin abscess appearance entry is “devoid of any discernible abscesses”. Besides, the “bacterial load of the skin at the infected site” value in the assay with MRSA-2 [2] (2D 5 and 10 mg/kg, vancomycin 5 mg/kg, compared with model and solvent group) is “decreased bacterial load; also recorded: significantly reduced”. For the same compound, in the assay on MRSA-2 [2] (infected mice after treatment, H&E), the “histopathology of the major organs” value is reported as “no discernible lesions”.

The record behind these values is publication PMC12250302, “Synthesis, Antimicrobial Activities, and Model of Action of Novel Tetralone Derivatives Containing Aminoguanidinium Moiety” (International Journal of Molecular Sciences, 2025).
